Consider one compound from US20220047596A1, “COMBINATION OF PARP INHIBITOR AND BRD4 INHIBITOR FOR THE TREATMENT OF CANCER” (Board of Regents, The University of Texas System, priority 2018, published 2022).

The structures appear in SMILES notation.

Experiment [1] concerns OVCAR8 and WU-BC3 PDX tumors. Kind of experiment: IHC of OVCAR8 and WU-BC3 PDX tumors at study termination. The conditions noted are these: mouse, in vivo. Also noted: species or system mice. As to the method: Immunohistochemical Staining (IHC) Tissues were fixed in 10% formalin overnight and embedded in paraffin. […] paraffin embedded sections were first deparaffinized in xylene. IHC were carried out with EnVision Detection Systems HRP. Rabbit/Mouse (DAB+) kit (Agilent) following manufacturer's instructions. Endogenous peroxidase was blocked by incubation with 0.3% hydrogen peroxide for 15 min. Antigen retrieval was performed by boiling the slides in citrate buffer (10 mM, pH 6.0) in a water bath for […]. Slides were rinsed in PBS Tween 0.05% and blocked for […] with 5% bovine serum albumin (BSA). Slide were incubated overnight at 4° C. with primary antibodies (anti-BRD4,
#13440S, 1:200; anti-CtIP, #9201S, 1:200 from Cell Signaling Technology; anti-RAD51, PC130, 1:100; anti-g-H2AX (Ser139), clone JBW301, 1:500 from Millipore Corp; and anti-pRPA32(S4/8), A300-245A, 1:1000 from Bethyl Laboratories), followed by 1 hr with Labelled Polymer-HRP at room temperature. Negative controls were treated identically, but without primary antibody. Subsequently, slides were incubated with DAB+ Chromogen. Slides were counterstained with hematoxylin. After mounting, slides were observed under microscope and photographed.
OVCAR8 Xenografts: 3×10^6 OVCAR8 cells were injected s.c. into mouse flanks in a 1:1 mix of PBS and Matrigel. […] Tumor volumes were calculated using […]. […]

A further experiment deals with CtIP. Kind of experiment: Western blot of CtIP and DNA damage response proteins. It counts as cell-based, Human. As to the method:
Protein lysates were analyzed by RPPA in MDACC CCSG (The Cancer Center Support Grant) supported RPPA Core. Antibodies and approaches are described at the RPPA website (https://www.mdanderson.org/research/research-resources/core-facilities/functional-proteomics-rppa-core.html). For visualization, 2D and 3D, concentrations and time were averaged for each cell line. Heat map represents “rank-ordered” changes induced by BRD4i treatment, calculated by summing median-centered protein amount normalized to DMSO. Western Blot: To prepare whole cell lysates, cells were lysed with RIPA buffer (Thermo Fisher Scientific) supplemented with Halt™ Protease and Phosphatase Inhibitor (EDTA-free) Cocktail (Thermo Fisher Scientific). After thorough mixing and incubation at 4° C. for 10 min, lysates were centrifuged at 15,000 g at 4° C. for 15 min, and supernatants were collected. To prepare subcellular fraction of nuclear soluble and chromatin-bound fraction, cells were treated with indicated drugs, and then cells were collected. For fractionation, a Subcellular Protein Fractionation kit (Thermo Fisher Scientific) was used following the manufacturer's instructions. The protein content of the cell was determined, and the cellular lysates were separated by 10% SDS-PAGE, and electro-transferred onto polyvinylidene difluoride (PVDF) membranes. After being blocked with 5% non-fat milk in TBST, the membranes were incubated with primary antibodies at 4° C. overnight, followed by 1:2000 horseradish peroxidase (HRP)-conjugated secondary antibody (Abcam) for 1 hr. Bands were visualized using a Pierce™ ECL Western Blotting Substrate (Thermo Fisher Scientific). Primary antibodies used are listed in Key Resources Table.
In general terms: In western blotting, separated proteins are transferred to a membrane and probed.

Another experiment relates to cancer cell lines. Kind of experiment: Viability measurement (PrestoBlue, 96 hr) with CalcuSyn combination index. It counts as cell-based, Human. As to the method: Viability Measurements: Five thousand cells were seeded into sterile 96-well plates and treated with indicated drug combinations for 96 hr. DMSO was used as a vehicle. PrestoBlue® Cell Viability Reagent (Thermo Fisher Scientific) was used to assess cell viability. Background values from empty wells were subtracted and data normalized to vehicle-treated control. Synergistic effects between both compounds were calculated using the Chou-Talalay equation in CalcuSyn software, which takes into account both potency (IC50) and shape of the dose-effect curve. […], and CI>1 indicates antagonism.

The subject of the next experiment is HRD gene signature. Kind of experiment: HRD gene signature score applied to public transcriptional profiling data. The conditions noted are these: human or murine tumors; GEO datasets.
The subject of the next experiment is U2OS DR-GFP cells. Kind of experiment: U2OS DR-GFP HR reporter assay. It counts as cell-based, Human. The conditions noted are these: 100 nM for 24 hr, then I-Sce1 for 48 hr. From the text:
HR Repair Analysis: U2OS DR-GFP cells contain a single copy of the HR repair reporter substrate DR-GFP, which contains two nonfunctional GFP open reading frames, including one GFP-coding sequence that is interrupted by a recognition site for the I-SceI endonuclease. Expression of I-SceI leads to formation of a DSB in the I-SceI GFP allele, which can be repaired by HR using the nearby GFP sequence lacking the N- and C-termini, thereby producing functional GFP that can be detected by flow cytometry. […] Then, cells were transfected with a plasmid expressing I-SceI (pCBASce) for 48 hr. Cells transfected with an empty vector were used as a negative control. GFP-expressing plasmid (pEGFP-C1) was used for transfection efficiency control. Flow cytometry analysis was performed to detect GFP^+ cells using FACScalibur with CellQuest software (Becton Dickinson). The repair efficiency was scored as the percentage of GFP^+ cells.
In general terms: A reporter such as luciferase makes a cellular process visible.

Another experiment relates to HOC1 cells. Kind of experiment: Detection of ssDNA by BrdU immunofluorescence under non-denaturing conditions. The conditions noted are these: 4 hr after 10 Gy irradiation. In kind it is cell-based, Human. As to the method: Detection of ssDNA by Immunofluorescence: Cells were grown in […] BrdU for two doubling times before irradiation. […] Cells were placed on ice 10 min before irradiation and kept on ice during the irradiation with 10 Gy. […] BrdU was stained (anti-BrdU, ab8152, 1:100 from Abcam) in non-denaturing conditions which enables detection of BrdU incorporated in ssDNA. TE-2000 imaging acquisition system (Nikon) equipped with a 60× objective lens was used to capture images. Stained was quantified by ImageJ.

From the text for HRD gene signature: Microarray Analysis and IPA Analysis: Gene expression datasets of GSE29799 (Zuber et al., 2011), GSE66048 (Ambrosini et al., 2015), GSE44929 (Love′ n et al., 2013), GSE85840 (Rhyasen et al., 2016), GSE31365 (Delmore et al., 2011), and GSE43392 (Puissant et al., 2013) were downloaded from Gene Expression Omnibus (GEO) (https://www.ncbi.nlm.nih.gov/geo). Raw data were subjected to intensity normalization using affy package in R (Bioconductor), followed by log transformation and quantile normalization. Normalized data were checked for quality and determined to be free of outliers by analysis using box plots, density plots and MA plots. Differential expression genes after BRD4 inhibition were calculated using a linear model provided by the limma package in R based on the cutoffs: 2 for absolute fold change, 0.05 for p value.
HRD Score Acquisition from HRD Signature HRD signature consisting of 230 differentially expressed genes was obtained as previously described (Peng et al., 2014). Normalized gene expression data (GSE29799, GSE66048, GSE44929, GSE85840, GSE31365, and GSE43392) after BRD4 inhibition were subjected to unsupervised clustering with these 230 genes. HRD scores were determined by calculating the Pearson's correlations between median centered gene expression levels for HRD signature and gene expression levels for a given sample (Peng et al., 2014).

As to `Cc1sc2c(c1C)C(c1ccc(Cl)cc1)=N[C@@H](CC(=O)OC(C)(C)C)c1nnc(C)n1-2` [JQ1], in experiment [1], the “CtIP and pRPA32 (S4/8) (IHC)” value is recorded as “decreased”; the “gH2AX (IHC)” value is “increased”. For the same compound, the “expression of other MRN complex proteins” value in the experiment with CtIP (200 nM, 48 hr, HeyA8, OVCAR8, HOC7 cells) was “did not markedly alter”. For the same compound, in the experiment with CtIP (HOC1 and HeyA8 cells, dose and time course), the “CtIP and pRPA32 (S4/8) protein” value was “decreased CtIP and phosphorylated RPA32”. Further, in the experiment with CtIP (HeyA8 and HOC7, 200 nM, 48 hr), the RAD51 levels entry was “modestly decreased”. For the same compound, the BRCA1 levels result with CtIP (MCAS, 200 nM, 48 hr) was “modestly decreased”. In addition, the CtIP protein entry in the experiment on CtIP (all lines assessed, 200 nM, 48 hr) is “consistently decreased”. In the experiment with cancer cell lines (A2780CP_R, OAW42_R and OC316_R), the “resensitization of PARPi-resistant cells to PARPi” value is recorded as “resensitized”. The “PARPi resistance mediated by 53BP1 knockdown” value with cancer cell lines (BRCA1 knockdown MCF10A, BRCA1 mutant UWB1.289 and COV362 cells) is “reversed resistance”. In addition, in the experiment on HRD gene signature, the HRD score entry was “increased HRD score”. The “HR repair (percentage of GFP+ cells)” value in the experiment with U2OS DR-GFP cells is given as “attenuated HR repair”. For the same compound, in the experiment with HOC1 cells, the “formation of ssDNA” value is “significantly reduced”.
